# From paper PMC8125234, “Cardiolipin Stabilizes and Increases Catalytic Efficiency of Carnitine Palmitoyltransferase II and Its Variants S113L, P50H, and Y479F” (International Journal of Molecular Sciences, 2021)
# Substitutions are numbered along the chain they refer to.
# How the values were obtained:
# CPT II variant S113L [1] = molecular target: T1, CPT II variant S113L (Homo sapiens, UniProt P23786, S113L); assay: Influence of CL on the enzyme activity; type: biochemical; conditions: for Maximal Enzymatic Activity: w/o CL = 100
# T1 construct: made in house; host or cells: Escherichia coli BL21Gold DE
# T1 sequence (P23786 26-658 S113L): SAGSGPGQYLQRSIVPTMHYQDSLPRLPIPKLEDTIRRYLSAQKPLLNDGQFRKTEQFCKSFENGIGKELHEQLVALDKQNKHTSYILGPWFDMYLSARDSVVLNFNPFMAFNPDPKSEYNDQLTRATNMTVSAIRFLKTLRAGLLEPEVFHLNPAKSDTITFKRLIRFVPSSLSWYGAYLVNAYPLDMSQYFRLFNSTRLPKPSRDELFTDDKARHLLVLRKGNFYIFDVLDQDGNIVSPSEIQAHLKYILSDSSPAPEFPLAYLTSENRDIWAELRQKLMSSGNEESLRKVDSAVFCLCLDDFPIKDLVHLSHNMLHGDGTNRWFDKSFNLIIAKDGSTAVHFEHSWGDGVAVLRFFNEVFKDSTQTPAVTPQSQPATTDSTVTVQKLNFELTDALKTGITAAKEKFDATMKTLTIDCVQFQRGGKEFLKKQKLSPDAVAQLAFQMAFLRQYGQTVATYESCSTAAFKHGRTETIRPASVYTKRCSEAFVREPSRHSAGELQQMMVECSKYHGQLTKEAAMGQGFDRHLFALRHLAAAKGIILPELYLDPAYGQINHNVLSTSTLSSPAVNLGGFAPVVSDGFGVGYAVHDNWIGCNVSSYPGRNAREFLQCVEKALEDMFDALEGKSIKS
# Method: (§1) Then, the effect of CL, as a potential stabilizing agent, was investigated in the activity assay. Therefore, 0.1 mg/mL recombinant enzyme was incubated with various concentrations of CL (0.125, 0.25 or 0.5 mM) or buffer at 30 and 42 °C, respectively.
# (§2) Before activity measurements, the storage buffer of the enzymes was replaced with assay buffer (50 mM KH2PO4, 120 mM KCl, 1 mM EDTA-Na4) using vivaspin turbo 4 tubes (Satorius Stedim biotech GmbH, Göttingen, Germany) at 4 °C. The pH of assay buffer was adjusted with KOH to 7.4. The storage buffer was diluted at least 1:500 in assay buffer. In addition, before each experimental set up, the protein samples were centrifuged at 16,000× g for 5 min at 4 °C to remove any micro-aggregates. After that, the protein concentration was determined using bicinchoninic acid (BCA) protein assay kit (Thermo Fisher Scientific GmbH, Berlin, Germany). The enzyme activity of recombinant CPT II was performed following Rufer et al. with modifications described elsewhere. […] After pre-conditioning the mixture to 25 °C for 2 min, the reaction was started by adding 15 nM of recombinant enzyme. The reverse reaction of CPT II was detected with the enzyme activity assay. CPT II catalyzed the transfer of fatty acid residue from Pal-CoA to L-carnitine with release of CoA and Pal-carnitine. The released CoA was then detected by the reaction of the free thiol group with DTNB, forming 5-mercapto-(2-nitrobenzoic acid). This compound has a molar extinction coefficient of 13,600 M^−1 cm^−1 at a wavelength of 410 nm, and its formation was followed spectroscopically. […] The slope of the progress curve was used to determine the reaction velocity.
# (§3) The purified enzymes were incubated at different temperatures (30, 37, 40 and 42 °C) using a protein concentration of 1 mg/mL during the incubation periods to investigated the half-lives of WT and variants. 0.1 mg/mL enzyme was incubated with or without CL (0.125, 0.25 and 0.5 mM) in the assay buffer. The enzyme activities were determined by adding 15 nM of pre-incubated enzyme according to Section 4.3 after various incubation times up to 60 min at an assay temperature of 25 °C. Experiments were done at least three times independently as double determination.
# CPT II variant Y479F = molecular target: T2, CPT II variant Y479F (Homo sapiens, UniProt P23786, Y479F); assay: Influence of CL on the enzyme activity; type: biochemical
# T2 construct: made in house; host or cells: Escherichia coli BL21Gold DE
# T2 sequence (P23786 26-658 Y479F): T1 sequence (P23786 26-658 S113L) with L88S, Y454F
# Method: as §1, §2, §3
# [2] = system: recombinant human CPT II WT; parameters: method as in PMID 13534673; conditions: cited from earlier work
# CPT II variant S113L [3] = molecular target: T1, CPT II variant S113L; parameters: method as in PMID 13534673; conditions: cited from earlier work
substance,measurement,setting,value
Cardiolipin [CL],Increase of the enzymatic activity by CL,CPT II variant S113L [1],marginal effect
same,Maximal Enzymatic Activity,CPT II variant S113L [1]; 0.25 mM CL,114.5 ± 8.3%
same,Maximal Enzymatic Activity,CPT II variant S113L [1]; 0.5 mM CL,98.7 ± 5.1%
same,Enzymatic activity in the presence of CL,CPT II variant S113L [1]; before incubation periods,115%
same,Increase of the enzymatic activity by CL,CPT II variant Y479F,1.8 fold
same,Maximal Enzymatic Activity,"CPT II variant Y479F; 0.5 mM CL, w/o CL = 100",151.7 ± 7.6%
same,Enzymatic activity in the presence of CL,CPT II variant Y479F; before incubation periods,175%
same,Effect of CL on enzyme activity,[2],activity-increasing effect
same,Effect of CL on enzyme activity,CPT II variant S113L [3],no benefit
